The subject of experiment [1] is Smad3 targets (PAI-1, CTGF, Smad7). Briefly: RT-PCR/qPCR/Western of Smad3 responsive genes in AKR-2B cells. In kind it is cell-based. As to conditions: 5 ng/mL TGFβ, 24 hours. Here is the method: (§1) FIGS. 2A-C. TAT-SH3 inhibits Smad3-dependent responses. (A) AKR-2B cells were transiently transfected with a Smad3 (3TP), Smad2 (ARE), or Smad1/5/8 (BRE) reporter construct, and luciferase activity determined following 12 hours incubation in the absence (−) or presence (+) of the indicated ligand (5 ng/mL TGFβ; 10 ng/mL BMP4) or TAT-SNX9(SH3) fusion polypeptide (1.5 μM). Data represent the mean+/−SEM of three experiments. (B) RT-PCR analysis of Smad3 (PAI-1 and CTGF) and Smad2 (MMP2) responsive gene following 24 hour treatment of AKR-2B cells with the indicated concentration of TAT-SNX9(SH3) fusion polypeptide or 5 ng/mL TGFβ. Loading was verified by GAPDH expression. (C) Soft agar colony formation was performed following seven days growth in the presence (+) or absence (−) of TGFβ (10 ng/mL) or the indicated TAT-SNX9(SH3) fusion polypeptide (1.5 μM). […]
(§2) FIGS. 3A-E. Inhibition of Smad3 signaling by a defined region of the SH3 domain in SNX9. […] (B) Nuclear fractions were prepared and assessed as in FIG. 1B following transduction with the indicated TAT-SNX9(SH3) fusion polypeptide (Left). Quantitation (mean+/−sd) of nuclear pSmad2 or pSmad3 from 2 experiments (Right). (C) Immunofluorescence of nuclear Smad3 was determined as in FIG. 1C from 30 cells in each of two experiments in the absence (−) or presence (+) of 5 ng/mL TGFβ and the indicated TAT-SNX9(SH3) fusion polypeptide (1.5 μM). […]

Experiment [2] deals with Smad2 targets (MMP2, Goosecoid, Furin, MixL). Briefly: RT-PCR/qPCR of Smad2 responsive genes in AKR-2B cells. The format is cell-based. As to conditions: 5 ng/mL TGFβ, 24 hours. Here is the method:
as §1, §2

“Also recorded” adds a separate entry of the source.

As for “TAT-SH3-2: TAT-SNX9(SH3) fusion polypeptide having SNX9 amino acids 21-51 (31 mer) (TVNEGEIITITNPDVGGGWLEGRNIKGERGL; left off: small tags and cut ends)”, in experiment [1], the “TGFβ induction of Smad3 targets / Smad3-dependent transcriptional responses” value was “prevented Smad3-dependent transcriptional responses; also recorded: prevented TGFβ induction of Smad3 targets such as CTGF, PAI-1, and Smad7 to a similar degree as inhibition of TβRI”. In experiment [2], the “induction of Smad2 targets” value was “Neither polypeptide impacted the induction of Smad2 targets”.
Regarding “TAT-SH3-2M: TAT-SH3-2 with G to V point mutations at amino acids 36-38; inactive TAT-SNX9 peptide unable to bind pSmad3 (TVNEGEIITITNPDVVVVWLEGRNIKGERGL; left off: small tags and cut ends)”, the “TGFβ induction of Smad3 targets / Smad3-dependent transcriptional responses” value in experiment [1] is “abolished the inhibitory effect”. In addition, in experiment [2], the “induction of Smad2 targets” value is recorded as “Neither polypeptide impacted the induction of Smad2 targets”.

(Values after US10144929B2, “Polypeptide inhibitors of Smad3 polypeptide activities” (Mayo Foundation for Medical Education and Research, priority 2016, dated 2018).)
